Source: patent US20260125382A1, “COMPOUNDS FOR INHIBITING OR DEGRADING CDK2 AND/OR CDK9 AND MEDICINAL USE THEREOF” (KOREA RESEARCH INSTITUTE OF CHEMICAL TECHNOLOGY, priority 2022, published 2026)

Key:
[1] = target: T1, CDK2 (Homo sapiens, UniProt P24941); assay: CDK protein degradation activity (Western blotting), CDK2; format: cell-based; conditions: MDA-MB-231 cells, 16 hours, Western blot
T1 construct: endogenous in cells; host or cells: MDA-MB-231
How it was run: (§1)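 MDA-MB-231 cells treated 16 h with compound at 100 nM, 1 μM or 10 μM, with DMSO as control. Lysates run on SDS-PAGE and immunoblotted for CDK2, CDK9 and tubulin; band levels quantified by densitometry.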

[2] = target: T2, CDK9 (Homo sapiens, UniProt P50750); assay: CDK protein degradation activity (Western blotting), CDK9; format: cell-based; conditions: MDA-MB-231 cells, 16 hours, Western blot
T2 construct: endogenous in cells; host or cells: MDA-MB-231
T2 sequence (P50750 whole entry): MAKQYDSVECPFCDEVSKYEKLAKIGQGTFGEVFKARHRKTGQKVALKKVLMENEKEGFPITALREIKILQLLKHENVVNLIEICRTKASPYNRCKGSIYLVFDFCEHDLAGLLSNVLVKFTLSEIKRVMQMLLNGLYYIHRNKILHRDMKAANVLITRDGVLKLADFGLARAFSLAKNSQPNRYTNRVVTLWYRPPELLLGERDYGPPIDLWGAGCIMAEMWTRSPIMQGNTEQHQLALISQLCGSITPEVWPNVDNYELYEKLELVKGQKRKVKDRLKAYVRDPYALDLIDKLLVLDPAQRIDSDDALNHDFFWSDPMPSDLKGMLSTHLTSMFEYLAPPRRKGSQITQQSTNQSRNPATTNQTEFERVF
How it was run: as §1

| Structure (SMILES) | Enzyme degradation CDK2 (% remaining) @ 0.1 μM [1] | Enzyme degradation CDK2 (% remaining) @ 1 μM [1] | Enzyme degradation CDK2 (% remaining) @ 10 μM [1] | Enzyme degradation CDK9 (% remaining) @ 0.1 μM [2] | Enzyme degradation CDK9 (% remaining) @ 1 μM [2] | Enzyme degradation CDK9 (% remaining) @ 10 μM [2] |
| --- | --- | --- | --- | --- | --- | --- |
| O=C1CC[C@H](N2C(=O)c3ccc(N4CCC5(CC4)CC(N4CCN(c6ccc(Nc7ncnc8c7ncn8[C@H]7C[C@@H](NC(=O)Cc8ccccc8)C7)cc6)CC4)C5)cc3C2=O)C(=O)N1 [Compound 210, N-((1s,3s)-3-(6-((4-(4-(7-(2-(2,6-dioxopiperidin-3-yl)-1,3-dioxoisoindolin-5-yl)-7-azaspiro[3.5]nonan-2-yl)piperazin-1-yl)phenyl)amino)-9H-purin-9-yl)cyclobutyl)-2-phenylacetamide] | 30/30/30% | 30/30/30% | 30/30/30% | 10% | 0% | 0% |
| O=C1CC[C@H](N2C(=O)c3cccc(OCC(=O)N4CCC(CC(=O)N5CCN(c6ccc(Nc7ncnc8c7ncn8C7CC(NC(=O)Cc8ccccc8)C7)cc6)CC5)CC4)c3C2=O)C(=O)N1 (stereo partly drawn) [Compound 212, N-((1s,3s)-3-(6-((4-(4-(2-(1-(2-((2-(2,6-dioxopiperidin-3-yl)-1,3-dioxoisoindolin-4-yl)oxy)acetyl)piperidin-4-yl)acetyl)piperazin-1-yl)phenyl)amino)-9H-purin-9-yl)cyclobutyl)-2-phenylacetamide] | 30% | 20% | 10% | 70% | 30% | 20% |
| O=C1CC[C@H](N2C(=O)c3ccc(N4CCC(CC(=O)N5CCN(c6ccc(Nc7ncnc8c7ncn8[C@H]7C[C@@H](NC(=O)Cc8ccccc8)C7)cc6)CC5)CC4)cc3C2=O)C(=O)N1 [Compound 216, N-((1s,3s)-3-(6-((4-(4-(2-(1-(2-(2,6-dioxopiperidin-3-yl)-1,3-dioxoisoindolin-5-yl)piperidin-4-yl)acetyl)piperazin-1-yl)phenyl)amino)-9H-purin-9-yl)cyclobutyl)-2-phenylacetamide] | 40% | 40% | 50% | 50/50/50% | 50/50/50% | 50/50/50% |
| O=C(COc1ccc(C2CCC(=O)NC2=O)cc1)NC[C@H]1CC[C@H](CN2CCN(c3ccc(Nc4ncnc5c4ncn5[C@H]4C[C@@H](NC(=O)Cc5ccccc5)C4)cc3)CC2)CC1 (stereo partly drawn) [Compound 217, 2-(4-(2,6-dioxopiperidin-3-yl)phenoxy)-N-(((1r,4r)-4-((4-(4-((9-((1s,3s)-3-(2-phenylacetamido)cyclobutyl)-9H-purin-6-yl)amino)phenyl)piperazin-1-yl)methyl)cyclohexyl)methyl)acetamide] | 80% | 100% | 50% | 0/0/0% | 0/0/0% | 0/0/0% |
| O=C(COc1cccc2c1C(=O)N(C1CCC(=O)NC1=O)C2=O)NCC1CCC(CN2CCN(c3ccc(Nc4ncnc5c4ncn5C4CC(NC(=O)Cc5ccccc5)C4)cc3)CC2)CC1 (stereo not drawn) [Compound 219, 2-((2-(2,6-dioxopiperidin-3-yl)-1,3-dioxoisoindolin-4-yl)oxy)-N-(((1r,4r)-4-((4-(4-((9-((1s,3s)-3-(2-phenylacetamido)cyclobutyl)-9H-purin-6-yl)amino)phenyl)piperazin-1-yl)methyl)cyclohexyl)methyl)acetamide] | 80% | 50% | 50% | 100% | 10% | 0% |
| O=C(CNc1ccc2c(c1)C(=O)N(C1CCC(=O)NC1=O)C2=O)NC[C@H]1CC[C@H](CN2CCN(c3ccc(Nc4ncnc5c4ncn5[C@H]4C[C@@H](NC(=O)Cc5ccccc5)C4)cc3)CC2)CC1 (stereo partly drawn) [Compound 220, 2-((2-(2,6-dioxopiperidin-3-yl)-1,3-dioxoisoindolin-5-yl)amino)-N-(((1r,4r)-4-((4-(4-((9-((1s,3s)-3-(2-phenylacetamido)cyclobutyl)-9H-purin-6-yl)amino)phenyl)piperazin-1-yl)methyl)cyclohexyl)methyl)acetamide] | 80% | 80% | 60% | 40% | 0% | 0% |
| O=C1CC[C@H](N2C(=O)c3cccc(NC[C@H]4CC[C@H](CN5CCN(c6ccc(Nc7ncnc8c7ncn8[C@H]7C[C@@H](NC(=O)Cc8ccccc8)C7)cc6)CC5)CC4)c3C2=O)C(=O)N1 [Compound 222, N-((1s,3s)-3-(6-((4-(4-(((1r,4r)-4-(((2-(2,6-dioxopiperidin-3-yl)-1,3-dioxoisoindolin-4-yl)amino)methyl)cyclohexyl)methyl)piperazin-1-yl)phenyl)amino)-9H-purin-9-yl)cyclobutyl)-2-phenylacetamide] | 100/100/100% | 100/100/100% | 100/100/100% | 70% | 70% | 80% |
| O=C1CC[C@@H](c2cccc(OCC(=O)N3CCC(CN4CCN(c5ccc(Nc6ncnc7c6ncn7C6CC(NC(=O)Cc7ccccc7)C6)cc5)CC4)CC3)c2)C(=O)N1 (stereo partly drawn) [Compound 225, N-((1s,3s)-3-(6-((4-(4-((1-(2-(3-(2,6-dioxopiperidin-3-yl)phenoxy)acetyl)piperidin-4-yl)methyl)piperazin-1-yl)phenyl)amino)-9H-purin-9-yl)cyclobutyl)-2-phenylacetamide] | 10% | 20% | 40% | 30% | 0% | 0% |

Other lines, results leading:

| Enzyme degradation CDK2 (% remaining) @ 0.1 μM [1] | Enzyme degradation CDK2 (% remaining) @ 1 μM [1] | Enzyme degradation CDK2 (% remaining) @ 10 μM [1] | Enzyme degradation CDK9 (% remaining) @ 0.1 μM [2] | Enzyme degradation CDK9 (% remaining) @ 1 μM [2] | Enzyme degradation CDK9 (% remaining) @ 10 μM [2] | Structure (SMILES) |
| --- | --- | --- | --- | --- | --- | --- |
| 70% | 60% | 30% | 30% | 20% | 10% | O=C1CC[C@H](N2C(=O)c3cccc(N4CCC5(CC4)CC(N4CCN(c6ccc(Nc7ncnc8c7ncn8[C@H]7C[C@@H](NC(=O)Cc8ccccc8)C7)cc6)CC4)C5)c3C2=O)C(=O)N1 [Compound 209, N-((1s,3s)-3-(6-((4-(4-(7-(2-(2,6-dioxopiperidin-3-yl)-1,3-dioxoisoindolin-4-yl)-7-azaspiro[3.5]nonan-2-yl)piperazin-1-yl)phenyl)amino)-9H-purin-9-yl)cyclobutyl)-2-phenylacetamide] |
| 50% | 50% | 40% | 30/30/30% | 30/30/30% | 30/30/30% | O=C1CC[C@H](N2C(=O)c3cccc(NCC(=O)N4CCC(CC(=O)N5CCN(c6ccc(Nc7ncnc8c7ncn8C7CC(NC(=O)Cc8ccccc8)C7)cc6)CC5)CC4)c3C2=O)C(=O)N1 (stereo partly drawn) [Compound 211, N-((1s,3s)-3-(6-((4-(4-(2-(1-((2-(2,6-dioxopiperidin-3-yl)-1,3-dioxoisoindolin-4-yl)glycyl)piperidin-4-yl)acetyl)piperazin-1-yl)phenyl)amino)-9H-purin-9-yl)cyclobutyl)-2-phenylacetamide] |
| 50% | 70% | 50% | 70% | 30% | 10% | O=C1CC[C@H](N2C(=O)c3ccc(NCC(=O)N4CCC(CC(=O)N5CCN(c6ccc(Nc7ncnc8c7ncn8C7CC(NC(=O)Cc8ccccc8)C7)cc6)CC5)CC4)cc3C2=O)C(=O)N1 (stereo partly drawn) [Compound 213, N-((1s,3s)-3-(6-((4-(4-(2-(1-((2-(2,6-dioxopiperidin-3-yl)-1,3-dioxoisoindolin-5-yl)glycyl)piperidin-4-yl)acetyl)piperazin-1-yl)phenyl)amino)-9H-purin-9-yl)cyclobutyl)-2-phenylacetamide] |
| 100/100/100% | 100/100/100% | 100/100/100% | 100% | 60% | 0% | O=C(COc1ccc2c(c1)C(=O)N(C1CCC(=O)NC1=O)C2=O)NC[C@H]1CC[C@H](CN2CCN(c3ccc(Nc4ncnc5c4ncn5[C@H]4C[C@@H](NC(=O)Cc5ccccc5)C4)cc3)CC2)CC1 (stereo partly drawn) [Compound 221, 2-((2-(2,6-dioxopiperidin-3-yl)-1,3-dioxoisoindolin-5-yl)oxy)-N-(((1r,4r)-4-((4-(4-((9-((1s,3s)-3-(2-phenylacetamido)cyclobutyl)-9H-purin-6-yl)amino)phenyl)piperazin-1-yl)methyl)cyclohexyl)methyl)acetamide] |
